Experimental data from patent US20020028938A1, “Prostaglandin endoperoxide H synthase biosynthesis inhibitors” (priority 1997, published 2002).

How the values were obtained:
[1] = target: T1, recombinant human Cox-2 (r-hu Cox-2) (Homo sapiens, UniProt P35354); assay: Recombinant human PGHS-2 enzyme assay (RHUCX2); assay type: biochemical; settings: for IC50: read-out: RHUCX2 IC50 (parenthetical value)
T1 construct: made in house; host or cells: baculovirus/Sf9 insect cells (microsomes)
T1 sequence (P35354 18-604): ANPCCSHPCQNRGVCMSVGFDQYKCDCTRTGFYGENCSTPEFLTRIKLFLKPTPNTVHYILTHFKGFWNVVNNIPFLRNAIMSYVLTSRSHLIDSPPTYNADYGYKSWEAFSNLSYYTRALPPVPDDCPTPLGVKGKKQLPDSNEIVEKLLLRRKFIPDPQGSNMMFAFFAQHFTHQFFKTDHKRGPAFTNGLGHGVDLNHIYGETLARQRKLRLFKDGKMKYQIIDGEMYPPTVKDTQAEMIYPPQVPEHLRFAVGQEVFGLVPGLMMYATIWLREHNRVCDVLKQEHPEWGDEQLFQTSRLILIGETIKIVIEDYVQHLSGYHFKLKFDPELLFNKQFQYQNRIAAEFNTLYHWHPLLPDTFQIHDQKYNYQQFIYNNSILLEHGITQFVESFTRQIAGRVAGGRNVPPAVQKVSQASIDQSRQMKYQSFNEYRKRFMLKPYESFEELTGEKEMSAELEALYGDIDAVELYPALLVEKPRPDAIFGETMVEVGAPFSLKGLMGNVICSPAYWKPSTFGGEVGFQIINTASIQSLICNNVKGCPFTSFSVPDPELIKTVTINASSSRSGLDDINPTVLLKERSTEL
How it was run: (§1)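 PGE2 by EIA (optical density) → % inhibition vs control-group mean → IC50 from linear regression.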

[2] = target: T2, Human Whole Platelet Cyclooxygenase-1 (Homo sapiens, UniProt P23219); assay: Human Whole Platelet Cyclooxygenase-1 assay (HWPX); assay type: cell-based; settings: for IC50: read-out: HWPX IC50 (parenthetical value)
T2 construct: from tissue; host or cells: human blood: isolated platelets (A4) or heparinised whole blood (A9)
Experimental: Blood from normal healthy volunteers is collected into tubes containing ACD (acid citrate dextrose) as the anticoagulant. This blood is centrifuged at 175×g to prepare platelet rich plasma. The platelet rich plasma is then centrifuged at 100×g to pellet the white blood cells, leaving the platelets in the supernatant. The supernatant is layered on a cushion of 0.7 mL of 10% bovine serum albumin in Tyrodes solution (Gibco; Grand Island, N.Y.) and then centrifuged at 1000×g. The resulting supernatant from this centrifuigation is then removed and 11 mL of Tyrodes solution is added to the remaining pellet of platelets. The platelets are then aliquoted at 120 μl into a 96 well plate. Experimental compounds are added and allowed to pre-incubate for 10 minutes. At the end of this pre-incubation period, the calcium ionophore A23187 is added to a final concentration of 8.8 μM and the incubation is continued for ten minutes. The reaction is stopped by adding cold 6 mM EDTA, the incubation mixture is centrifuged at 220×g, and the supernatants are then analyzed for thromboxane using a commercial kit from Cayman Chemical (Ann Arbor, Mich.

[3] = target: T3, recombinant human Cox-1 (r-hu Cox1) (Homo sapiens, UniProt P23219); assay: Recombinant human PGHS-1 enzyme assay (RHUCX1); assay type: biochemical; settings: 100 μM; for inhibition at 100 µM: read-out: RHUCX1 % Inh. at Dose
T3 construct: made in house; host or cells: baculovirus/Sf9 insect cells (microsomes)
How it was run: as §1

[4] = target: T4, human amnionic whole cell cyclooxygenase-2 (WISH cells) (Homo sapiens, UniProt P35354); assay: IL-1β induced PGE2 production in WISH cells; assay type: cell-based; settings: for IC50: read-out: Wish IC50 (parenthetical value); for inhibition at 0.1 µM / inhibition at 1 µM: read-out: Wish % Inhib. at Dose
T4 construct: endogenous in cells; host or cells: human amnionic WISH cells, induced with IL-1beta
T4 sequence (P35354 18-604): T1 sequence (P35354 18-604)
Experimental: EIA reagents for prostaglandin determination were purchased from Perseptive Diagnostics, (Cambridge, Mass.). Prostaglandin E2 (PGE2) levels in lavage fluids were determined after the samples were dried under nitrogen and reconstituted with assay buffer. PGE2 levels in enzyme assays or cell culture media were measured against standards prepared in the same milieu. The immunoassays were conducted as recommended by the manufacturer. The EIA was conducted in 96 well microtiter plates (Nunc Roskilde, Denmark) and optical density was measured using a microplate reader (Vmax, Molecular Devices Corp., Menlo Park, Calif.).
Human amnionic WISH cells were grown to 80% confluence in 48 well plates. Following removal of the growth medium and two washings with Geys Balanced Salt Solutn, 5 ng IL-1β /ml (UBI, Lake Placid, N.Y.) was added to the cells with or without test compound in DMSO (0.01% v/v) in Neuman-Tytell Serumless Medium (GIBCO, Grand Island, N.Y.).

[5] = 10 μM, read-out: HWPX % Inhib. at Dose
[6] = read-out: HWPX % Inhib. at Dose
[7] = read-out: RHUCX2 % Inh. at Dose
[8] = 0.1 μM, read-out: RHUCX2 % Inh. at Dose
[9] = 1 μM, read-out: RHUCX2 % Inh. at Dose

T2 sequence (P23219 24-599): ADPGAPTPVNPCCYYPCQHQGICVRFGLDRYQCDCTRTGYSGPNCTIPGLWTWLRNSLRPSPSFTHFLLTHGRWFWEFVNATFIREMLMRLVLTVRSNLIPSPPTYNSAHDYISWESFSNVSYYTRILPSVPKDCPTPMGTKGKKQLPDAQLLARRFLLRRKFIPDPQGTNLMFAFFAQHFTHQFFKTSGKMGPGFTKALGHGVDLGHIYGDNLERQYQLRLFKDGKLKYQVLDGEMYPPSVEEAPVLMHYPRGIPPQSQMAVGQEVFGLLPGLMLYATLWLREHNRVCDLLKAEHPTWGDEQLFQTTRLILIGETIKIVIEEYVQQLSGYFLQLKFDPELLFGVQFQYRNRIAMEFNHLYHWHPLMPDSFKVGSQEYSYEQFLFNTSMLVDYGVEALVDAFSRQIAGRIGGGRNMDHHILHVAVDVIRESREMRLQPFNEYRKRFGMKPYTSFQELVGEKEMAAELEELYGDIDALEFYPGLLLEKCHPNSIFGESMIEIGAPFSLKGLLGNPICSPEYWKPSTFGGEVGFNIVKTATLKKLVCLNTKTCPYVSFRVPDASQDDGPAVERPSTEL
T3 sequence (P23219 24-599): as above

Row | IC50 [4] [nM] | melting point [°C] | inhibition at 0.1 µM [1, 8] [%] | inhibition at 100 µM [3] [%] | Compound | other results
1 | 8 | – | – | – | 2-(5-Methylthien-2-ylmethyl)-4-(4-fluorophenyl)-5-[4-(methylsulfonyl)phenyl]-3(2H)-pyridazinone [Example 43] | RHUCX2 % Inh. at Dose (μM) ([1]; 0.1 μM): 96 @ 0.1%; RHUCX2 % Inh. at Dose (μM) ([1]; 1 μM): 100 @ 1%; HWPX % Inhib. at Dose (μM) ([2]; 1 μM): 9 @ 1%; HWPX % Inhib. at Dose (μM) ([2]; 10 μM): 86 @ 10%; RHUCX1 % Inh. at Dose (μM) [3]: 8 @ 100%
2 | – | 188 to 190 | – | – | CS(=O)(=O)c1ccc(-c2cnn(Cc3ccccc3)c(=O)c2Oc2ccc(F)cc2)cc1 [Example 75] | inhibition at 3 µM ([2]; 3 μM, read-out: HWPX % Inhib. at Dose): 0%; inhibition at 10 µM [2, 5]: 84%
3 | 42 | 214 to 215 | – | – | CC(c1ccc(F)c(F)c1)n1ncc(-c2ccc(S(N)(=O)=O)cc2)c(-c2ccc(F)cc2)c1=O (stereo not drawn) [Example 148, 2-(α-Methyl-3,4-difluorobenzyl)-4-(4-fluorophenyl)-5-[4-(aminosulfonlI)phenyl]-3(2H)-pyridazinone] | inhibition at 0.3 µM ([2]; 0.3 μM, read-out: HWPX % Inhib. at Dose): 51%
4 | 41 | 168 to 170 | – | – | Cc1cc(-n2ncc(-c3ccc(S(C)(=O)=O)cc3)c(-c3ccc(F)cc3)c2=O)ccc1F [Example 189, 2-(4-Fluoro-3-methylphenyl)-4-(4-fluorophenyl)-5-[4-(methylsulfonyl)phenyl]-3(2H)-pyridazinone] | inhibition at 100 µM [2, 6]: 31%
5 | 19 | 228 to 230 | – | – | Cc1cc(-c2c(-c3ccc(S(C)(=O)=O)cc3)cnn(-c3cccc(Cl)c3)c2=O)ccc1F [Example 244, 2-(3-Chlorophenyl)-4-(4-fluoro-3-methylphenyl)-5-[4-(methylsulfonyl)phenyl]-3(2H)-pyridazinone] | IC50 [2]: 3670 nM
6 | 44 | 102 to 104 | 87 | 0 | CC(C)CCc1c(-c2ccc(S(C)(=O)=O)c(F)c2)cnn(-c2ccc(F)c(Cl)c2)c1=O [Example 252, 2-(3-Chloro-4-fluorophenyl)-4-(3-methylbutyl)-5-[3-fluoro-4-(methylsulfonyl)phenyl]-3(2H)-pyridazinone] | inhibition at 0.01 µM [1, 7]: 26%
7 | 70 | 108 to 110 | 91 | 36 | CC(C)COc1c(-c2ccc(S(C)(=O)=O)cc2)cnn(CC(F)(F)F)c1=O [Example 278, 2-(2,2,2-Trifluoroethyl)-4-(2-methylpropoxy)-5-[4-(methylsulfonyl)phenyl]-3(2H)-pyridazinone] | inhibition at 1 µM [1, 9]: 96%
8 | 391 | 98 to 99 | 31 | 0 | CC1(COc2c(-c3ccc(S(C)(=O)=O)cc3)cnn(CC(F)(F)F)c2=O)CC1 [Example 279] | inhibition at 1 µM [1, 9]: 60%
9 | 160 | 165 to 167 | 25 | 0 | CS(=O)(=O)c1ccc(-c2cnn(CC(F)(F)F)c(=O)c2SC2CCCCC2)cc1 [Example 287, 2-(2,2,2-Trifluoroethyl)-4-(cyclohexylthio)-5-[4-(methylsulfonyl)phenyl]-3(2H)-pyridazinone] | inhibition at 1 µM [1, 9]: 79%; inhibition at 10 µM ([1]; 10 μM, read-out: RHUCX2 % Inh. at Dose): 93%
10 | – | – | – | – | CS(=O)(=O)c1ccc(-c2cnn(Cc3ccccc3)c(=O)c2-c2ccc(Cl)s2)cc1 [Example 320, 2-Benzyl-4-(5-chloro-2-thienyl)-5-[4-(methylsulfonyl)phenyl]-3(2H)-pyrdazinone] | HWPX % Inhib. at Dose (μM) ([2]; 3 μM): 29 @ 3%; Wish % Inhib. at Dose (μM) ([4]; 0.01 μM): 15 @ .01%; Wish % Inhib. at Dose (μM) ([4]; 0.1 μM): 78 @ .1%
11 | 40 | – | – | – | Cc1ccc(-c2c(-c3ccc(S(C)(=O)=O)cc3)cnn(Cc3ccccc3)c2=O)cc1C [Example 325, 2-Benzyl-4-(3,4-dimethylphenl)-5-[4-(methylsulfonyl)phenyl]-3(2H)-pyridazinone] | IC50 [1]: 199 nM; IC50 [2]: 2300 nM
12 | 16 | 205 to 207 | – | – | CS(=O)(=O)c1ccc(-c2cnn(-c3cccc(Cl)c3)c(=O)c2Oc2ccccc2)cc1 [Example 343, 2-(3-Chlorophenyl)-4-(phenoxy)-5-[4-(methylsulfonyl)phenyl]-3(2H)-pyridazinone] | IC50 [2]: 191 nM
13 | 100 | 191 to 193 | – | 16 | CN(C)c1cccc(Oc2c(-c3ccc(S(C)(=O)=O)cc3)cnn(-c3cccc(Cl)c3)c2=O)c1 [Example 344, 2-(3-Chlorophenyl)-4-[3-(dimethylamino)phenoxy]-5-[4-(methylsulfonyl)phenyl]-3(2H)-pyridazinone] | IC50 [1]: 897 nM
14 | 30 | 182 to 184 | – | 0 | COc1ccc(Oc2c(-c3ccc(S(C)(=O)=O)cc3)cnn(-c3cccc(Cl)c3)c2=O)cc1 [Example 345, 2-(3-Chloroophenyl)-4-(4-methoxyphenoxy)-5-[4-(methylsulfonyl)phenyl]-3(2H)-pyridazinone] | IC50 [1]: 242 nM
15 | – | 110 to 114 | – | 30 | CS(=O)(=O)c1ccc(-c2cnn(-c3cccc(Cl)c3)c(=O)c2Sc2ccccn2)cc1 [Example 358, 2-(3-Chlorophenyl)-4-(2-pyridylthio)-5-[4-(methylsulfonyl)phenyl]-3(2H)-pyridazinone] | IC50 [1]: 2450 nM; inhibition at 0.1 µM ([4]; 0.1 μM): 0%; inhibition at 1 µM [4]: 69%
16 | 29 | 180 to 183 | – | 0 | NS(=O)(=O)c1ccc(-c2cnn(CC=C(F)F)c(=O)c2-c2ccc(F)cc2)cc1F [Example 408] | IC50 [1]: 279 nM
17 | – | 123 to 125 | 76 | 0 | CC(C)CCCOc1c(-c2ccc(S(C)(=O)=O)cc2)cnn(-c2ccc(F)cc2)c1=O [Example 414, 2-(4-Fluorophenyl)-4-(4-methylpentyloxy)-5-[4-(methylsulfonyl)phenyl]-3(2H)-pyridazinone] | inhibition at 1 µM [1, 9]: 87%; inhibition at 0.1 µM ([4]; 0.1 μM): 46%; inhibition at 1 µM [4]: 54%
18 | 420 | 135 to 137 | 90 | 55 | COC(Cn1ncc(-c2ccc(S(C)(=O)=O)cc2)c(-c2ccc(F)cc2)c1=O)c1ccccc1 (centres unmarked) [Example 442, 2-(2-Methoxy-2-phenylethyl)-4-(4-fluorophenyl)-5-[4-(methylsulfonyl)phenyl]-3(2H)-pyridazinone] | inhibition at 0.01 µM [1, 7]: 56%

Row | Compound | IC50 [4] [nM] | melting point [°C] | inhibition at 0.1 µM [1, 8] [%] | inhibition at 100 µM [3] [%] | other results
19 | CCC(CC)COc1c(-c2ccc(S(C)(=O)=O)cc2)cnn(-c2ccc(F)cc2)c1=O [Example 430, 2-(4-Fluorophenyl)-4-(2-ethyl-1-butoxy)-5-[4-(methylsulfonyl)phenyl]-3(2H)-pyridazinone] | 54 | 107 to 108 | – | – | inhibition at 10 µM [2, 5]: 34%; inhibition at 100 µM [2, 6]: 89%
